T1: Aurora + TPX2 (Homo sapiens, UniProt O14965)
T1 sequence (O14965 1-403): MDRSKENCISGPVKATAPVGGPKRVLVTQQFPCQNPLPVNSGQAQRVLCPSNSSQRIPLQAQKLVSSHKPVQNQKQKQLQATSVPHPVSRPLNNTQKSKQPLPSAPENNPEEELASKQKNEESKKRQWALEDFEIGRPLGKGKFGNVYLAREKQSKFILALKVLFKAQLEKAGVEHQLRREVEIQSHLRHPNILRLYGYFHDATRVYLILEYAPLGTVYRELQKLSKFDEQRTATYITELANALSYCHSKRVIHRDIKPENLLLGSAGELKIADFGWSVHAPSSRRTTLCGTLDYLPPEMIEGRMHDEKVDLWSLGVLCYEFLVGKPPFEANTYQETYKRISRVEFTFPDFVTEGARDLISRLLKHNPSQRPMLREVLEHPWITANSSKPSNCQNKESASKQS

T2: Aurora A (Homo sapiens, UniProt O14965)
T2 sequence (O14965 1-403): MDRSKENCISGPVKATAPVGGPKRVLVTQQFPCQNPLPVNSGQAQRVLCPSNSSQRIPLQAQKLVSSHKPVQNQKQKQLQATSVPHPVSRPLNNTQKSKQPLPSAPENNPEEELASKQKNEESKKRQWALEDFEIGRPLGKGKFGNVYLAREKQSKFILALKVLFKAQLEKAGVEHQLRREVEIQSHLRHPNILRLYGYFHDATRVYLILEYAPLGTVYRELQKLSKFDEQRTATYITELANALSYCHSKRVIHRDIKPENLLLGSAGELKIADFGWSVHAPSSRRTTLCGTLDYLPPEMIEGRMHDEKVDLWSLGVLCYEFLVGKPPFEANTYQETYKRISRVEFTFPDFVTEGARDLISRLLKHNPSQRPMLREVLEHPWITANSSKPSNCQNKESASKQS


Assays:
Aurora + TPX2 = biological target: T1, Aurora + TPX2; assay: luminescence ATP detection kinase assay (EasyLite-Kinase), Aurora + TPX2; type: biochemical; conditions: 150 nM Aurora with TPX2, 20 μM ATP, 100 μM Kemptide, 20 min room temperature
Description: (§1) The ability of compounds (7) and (12) to inhibit Aurora A was tested in a luminescence ATP detection assay system for kinase applications. Briefly, the compound of the present invention was added to a solution of Aurora A in HEPES buffer (150 nM Aurora +/− TPX2, 25 mM HEPES pH 7.4, 5 mM MgCl2, 0.01% Tween 20; 0.1% BSA; 100 μM Kemptide [Promega Corporation, Madison, Wis.]); final assay concentrations). The addition of an ATP solution (20 μM final concentration) initiated the reaction. The reaction was carried out for 20 min at room temperature and terminated by the addition of equal volumes of EasyLite Solution (Perkin Elmer Corporation, Boston, Mass.) followed by monitoring the luminescence in a Wallac Envision plate reader (Perkin Elmer Corporation, Boston, Mass.). The EasyLite-Kinase® is an ATP monitoring system based on firely (Photinus pyralis) luciferase for the evaluation of kinase activity. The system relies on the consumption of ATP during a kinase reaction and is commercially available.

Aurora A [1] = biological target: T2, Aurora A; assay: luminescence ATP detection kinase assay (EasyLite-Kinase), Aurora without TPX2; type: biochemical; conditions: for IC50: 150 nM Aurora without TPX2, 20 μM ATP, 100 μM Kemptide, 20 min room temperature
Description: as §1

protein kinase A, PKA = protein kinase A, PKA (Homo sapiens, UniProt P17612); assay: luminescence ATP detection kinase assay, PKA counter-test; type: biochemical
Aurora A [2] = biological target: T2, Aurora A; assay: immunoprecipitation from mitotic HeLa cell extract; type: binding; conditions: GST fusion proteins 1 μM, FIG. 1B
Description: HeLa cells (CCL2; ATCC, Manassas, Va.) were grown in 10% fetal calf serum (FCS) and 2 mM L-glutamine in modified Eagle's medium at 37° C. and 5% CO2. Cells were arrested in S phase using a double thymidine (2 mM) block as described (Stein, 1994) and released from S phase by washing away the thymidine. After 10 h, cells were trypsinized, incubated for 10 min in ice-cold lysis buffer (25 mM Tris pH 7.6, 200 mM NaCl, 1% Triton, protease inhibitors), and centrifuged for 10 min at 15,000 g.
For coating beads with anti-GST, 6 μg of antibody were incubated with 20 μl of protein A-conjugated Dynabeads 280 (Dynal) in a total volume of 100 μl PBS-T (PBS, 0.1% Triton X-100), for at least 1 h at 4° C. The beads were washed twice with PBS-T and twice with HeLa cells lysis buffer or CSF-XB (10 mM Hepes pH 7.7, 50 mM sucrose, 100 mM KCl, 2 mM MgCl2, 0.1 mM CaCl2 and 5 mM EGTA). 50 μl extract was incubated with GST, GST TPX2 1-43, GST TPX2 15-43, GST TPX2 Xenopus or GST TPX2(1-39) Xenopus proteins (final concentrations: 250 nM Xenopus; 1 μM HeLa) in the absence or presence of RanQ69L-GTP (16 μm) for 15 minutes at 20° C. and then added to the beads. […] The samples were then subjected to gel electrophoresis and analyzed by Western blotting with anti-GST, anti-Xenopus TPX2, anti-Xenopus Aurora-A or anti-human Aurora-A.

Aurora A [3] = biological target: T2, Aurora A; assay: phosphatase assay, PP1 treatment of Aurora-A, Western blot; type: biochemical; conditions: TPX2 protein 3 μM, Aurora-A 2 μM, PP1 0.5 h at 30° C., FIG. 1E
Description: Samples were diluted in phosphatase buffer (50 mM Tris-HCl pH 7, 0.1 mM EDTA, 1 mM MnCl2, 5 mM caffeine, 5 mM DTT, 0.025% Tween 20) and incubated in the absence or presence of PP1 (α isoform, NEB) for 0.5 h at 30° C. Afterwards proteins were separated by SDS-PAGE and analyzed by Western blotting with anti-Aurora-A or anti-phospho-Aurora-A (Cell Signalling, 1:10000 dilution).

Aurora A [4] = biological target: T2, Aurora A; assay: in vitro kinase assay, phosphorylation of histone H3 (autoradiography); type: biochemical; parameters: were incubated with full length Aurora-A or AuroraΔN in kinase buffer; made in house; host or cells: bacteria (printed only for the full-length protein used as immunogen); conditions: full length Aurora-A, TPX2 protein at 4 μM, FIG. 1C

Row | IC50 (Aurora + TPX2) [µM] | inhibition of Aurora (in words) (Aurora A [1]) | IC50 (Aurora A [1]) [µM] | IC50 (protein kinase A, PKA) [µM] | interaction with Aurora-A in HeLa extract (Aurora A [2]) | Molecule | protection of Aurora-A from dephosphorylation by PP1 (Aurora A [3]) | stimulation of histone H3 phosphorylation by Aurora-A (Aurora A [4])
1 | > 500 | inhibited Aurora significantly | 79 | > 500 |  | OCc1cn(CCCCc2ccccn2)c2ccc(Oc3ccc(O)cc3)cc12 [(7)] |  | 
2 | 37 | inhibited Aurora significantly | 37 | > 500 |  | COC(=O)C(CC(=O)NCc1cn(CCCCc2ccccn2)c2ccc(Oc3ccc(O)cc3)cc12)NC(C)=O (stereo not drawn) [(12), 3-N-aspartylaminomethyl-5-O-p-hydroxyphenyl-1-N-(4-pyridylbutyl)-indole] |  | 
3 |  |  |  |  | unable to do so | TPX2(15-43): shorter construct of human TPX2 encompassing residues 15-43 (DFINFSSLDDEGDTQNIDSWFEEKANLEN) | fully dephosphorylated as in the absence of TPX2 altogether | 
4 |  |  |  |  |  | Full-length TPX2: full-length TPX2 protein, specific activator of Aurora-A (protein, UniProt Q9ULW0 1-747, looked up, full-length) MSQVKSSYSYDAPSDFINFSSLDDEGDTQNIDSWFEEKANLENKLLGKNGTGGLFQGKTPLRKANLQQAIVTPLKPVDNTYYKEAEKENLVEQSIPSNACSSLEVEAAISRKTPAQPQRRSLRLSAQKDLEQKEKHHVKMKAKRCATPVIIDEILPSKKMKVSNNKKKPEEEGSAHQDTAEKNASSPEKAKGRHTVPCMPPAKQKFLKSTEEQELEKSMKMQQEVVEMRKKNEEFKKLALAGIGQPVKKSVSQVTKSVDFHFRTDERIKQHPKNQEEYKEVNFTSELRKHPSSPARVTKGCTIVKPFNLSQGKKRTFDETVSTYVPLAQQVEDFHKRTPNRYHLRSKKDDINLLPSKSSVTKICRDPQTPVLQTKHRARAVTCKSTAELEAEELEKLQQYKFKARELDPRILEGGPILPKKPPVKPPTEPIGFDLEIEKRIQERESKKKTEDEHFEFHSRPCPTKILEDVVGVPEKKVLPITVPKSPAFALKNRIRMPTKEDEEEDEPVVIKAQPVPHYGVPFKPQIPEARTVEICPFSFDSRDKERQLQKEKKIKELQKGEVPKFKALPLPHFDTINLPEKKVKNVTQIEPFCLETDRRGALKAQTWKHQLEEELRQQKEAACFKARPNTVISQEPFVPKKEKKSVAEGLSGSLVQEPFQLATEKRAKERQELEKRMAEVEAQKAQQLEEARLQEEEQKKEELARLRRELVHKANPIRKYQGLEIKSSDQPLTVPVSPKFSTRFHC | prevents dephosphorylation of Thr288AUR | increases the activity of the kinase, but appears less effective than the fragment

— patent US20080051327A1, “Crystals of an Aurora-A Tpx2 Complex, Tpx2 Binding Site of Aurora-A, Aurora-A Ligands and Their Use” (EMBL, priority 2003, published 2008)
